# Active and inactive are the calls of the source.
# Columns and labels:
# Cytochrome P450 2C9 = Cytochrome P450 2C9 (Homo sapiens, UniProt P11712)
# Cytochrome P450 2D6 = Cytochrome P450 2D6 (Homo sapiens, UniProt P10635);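 further: CYP2D6 member of a cytochrome P450 panel assay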
# HEK293 [1] = experiment: inhibition of NOD1-driven NF-kB reporter – cell-based, luminescence, uHTS, primary screen (AID 1578); type: functional; settings: Homo sapiens
# HEK293 [2] = experiment: cells; type: functional, cell-based; settings: Homo sapiens
# HEK293 [3] = experiment: cells; type: functional, cell-based; settings: Homo sapiens; remark: listed apart in the source
# [4] = target: Nucleotide-binding oligomerization domain-containing protein 2 (Homo sapiens, UniProt Q9HC29); experiment: inhibition of NOD2-driven NF-kB reporter – cell-based, luminescence, uHTS, HEK293 (AID 1566); type: functional
# HEK293 [5] = experiment: NOD2 signaling inhibitors in MDP-stimulated cells, cell-based, uHTS, luminescence (AID 2001); type: functional; settings: Homo sapiens
# HEK293 [6] = experiment: cells; type: functional, cell-based; settings: Homo sapiens; remark: listed apart in the source
# [7] = target: Induced myeloid leukemia cell differentiation protein Mcl-1 (Homo sapiens, UniProt Q07820); type: functional
# Tumor necrosis factor = Tumor necrosis factor (Homo sapiens, UniProt P01375); experiment: analog potency on TNFa NF-kB signaling – cell-based, revised, SAR follow-up (AID 2337); type: functional
# [8] = target: Nucleotide-binding oligomerization domain-containing protein 1 (Homo sapiens, UniProt Q9Y239); experiment: blockers of NOD1 pathway activity – revised, SAR follow-up (AID 2333); type: functional
# [9] = HEK-293T viability loss after treatment – luminescence, T-cell screen hits, cytotoxicity control for TCR NF-kB inhibitor project, dose response (AID 489026); type: functional, cell-based;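 further: cells exposed to compound about 14 hours before the viability readout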
# HEK293 [10] = experiment: cells; settings: Homo sapiens
# [11] = target: T1, Calpain-2 catalytic subunit (Sus scrofa, UniProt P43367); experiment: m-calpain protease blockers, concentration series – biochemical, fluorogenic peptide substrate, dose response (AID 1420); type: functional
# T1 sequence (P43367 whole entry): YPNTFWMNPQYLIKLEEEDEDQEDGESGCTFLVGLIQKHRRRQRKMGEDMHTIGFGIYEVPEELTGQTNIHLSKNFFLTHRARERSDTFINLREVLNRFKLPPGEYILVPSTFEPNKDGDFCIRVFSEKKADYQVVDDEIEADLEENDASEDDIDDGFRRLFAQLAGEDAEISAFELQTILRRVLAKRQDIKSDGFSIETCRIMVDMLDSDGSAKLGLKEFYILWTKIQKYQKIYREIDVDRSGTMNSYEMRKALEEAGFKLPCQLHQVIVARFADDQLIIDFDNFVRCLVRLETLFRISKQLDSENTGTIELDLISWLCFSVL
# Trypsin = Trypsin (Sus scrofa, UniProt P00761); experiment: trypsin protease activity blockade – biochemical, quenched peptide fluorescence, cherry-pick, selectivity assay for Rce1 protease inhibitor project, dose response (AID 488789)
# CAAX prenyl protease 2 [12] = target: CAAX prenyl protease 2 (Saccharomyces cerevisiae S288c, UniProt Q03530); type: biochemical
# Caspase-3 = target: T2, Caspase-3 (Homo sapiens, UniProt P42574); type: functional;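 further: Dose-response selectivity test against caspase-3 for candidate inhibitors of sentrin-specific proteases (SENPs)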
# T2 sequence (P42574 whole entry): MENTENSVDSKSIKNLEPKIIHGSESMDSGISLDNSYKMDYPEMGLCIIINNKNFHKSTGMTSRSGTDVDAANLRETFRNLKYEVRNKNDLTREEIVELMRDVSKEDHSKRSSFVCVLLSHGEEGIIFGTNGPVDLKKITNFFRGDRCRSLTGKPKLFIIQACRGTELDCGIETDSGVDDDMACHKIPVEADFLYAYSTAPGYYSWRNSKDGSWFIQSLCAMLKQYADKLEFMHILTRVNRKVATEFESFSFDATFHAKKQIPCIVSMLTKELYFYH
# [13] = target: T3, Sentrin-specific protease 7 (Homo sapiens, UniProt Q9BQF6); type: functional;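 further: Luminescence-based dose-response confirmation of ultra-high-throughput screening hits, measuring inhibition of SENP7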
# T3 sequence (Q9BQF6 whole entry): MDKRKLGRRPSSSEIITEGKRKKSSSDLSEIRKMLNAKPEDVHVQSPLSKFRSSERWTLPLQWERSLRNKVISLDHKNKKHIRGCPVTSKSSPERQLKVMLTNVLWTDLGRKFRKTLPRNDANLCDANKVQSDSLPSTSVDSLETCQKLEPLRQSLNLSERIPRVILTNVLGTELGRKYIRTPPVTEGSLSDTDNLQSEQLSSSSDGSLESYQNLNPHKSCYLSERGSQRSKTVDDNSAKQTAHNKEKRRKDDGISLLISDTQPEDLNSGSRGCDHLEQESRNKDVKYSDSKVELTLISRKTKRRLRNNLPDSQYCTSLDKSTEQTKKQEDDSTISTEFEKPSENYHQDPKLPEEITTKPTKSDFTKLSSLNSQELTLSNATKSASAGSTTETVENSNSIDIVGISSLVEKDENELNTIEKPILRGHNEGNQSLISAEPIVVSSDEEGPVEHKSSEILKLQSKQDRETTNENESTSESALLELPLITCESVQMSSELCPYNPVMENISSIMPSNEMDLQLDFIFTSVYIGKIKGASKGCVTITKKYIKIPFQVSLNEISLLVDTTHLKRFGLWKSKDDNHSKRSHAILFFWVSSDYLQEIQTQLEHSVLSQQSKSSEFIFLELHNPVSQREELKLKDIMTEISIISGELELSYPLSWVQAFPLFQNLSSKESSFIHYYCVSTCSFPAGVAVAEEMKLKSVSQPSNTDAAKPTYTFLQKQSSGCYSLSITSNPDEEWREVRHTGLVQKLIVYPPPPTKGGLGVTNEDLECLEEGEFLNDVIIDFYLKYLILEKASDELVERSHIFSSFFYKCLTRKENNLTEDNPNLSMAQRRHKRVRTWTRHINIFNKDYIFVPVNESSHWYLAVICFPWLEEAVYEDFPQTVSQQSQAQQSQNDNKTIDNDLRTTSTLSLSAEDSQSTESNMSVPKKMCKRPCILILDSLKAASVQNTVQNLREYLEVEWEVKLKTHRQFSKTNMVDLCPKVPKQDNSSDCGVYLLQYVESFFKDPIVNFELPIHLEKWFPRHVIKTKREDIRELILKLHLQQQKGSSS
# [14] = target: T4, Sentrin-specific protease 6 (Homo sapiens, UniProt Q9GZR1); type: functional;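 further: Luminescence-based dose-response confirmatory assay of SENP6 inhibition, following up an ultra-high-throughput screen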
# T4 sequence (Q9GZR1 whole entry): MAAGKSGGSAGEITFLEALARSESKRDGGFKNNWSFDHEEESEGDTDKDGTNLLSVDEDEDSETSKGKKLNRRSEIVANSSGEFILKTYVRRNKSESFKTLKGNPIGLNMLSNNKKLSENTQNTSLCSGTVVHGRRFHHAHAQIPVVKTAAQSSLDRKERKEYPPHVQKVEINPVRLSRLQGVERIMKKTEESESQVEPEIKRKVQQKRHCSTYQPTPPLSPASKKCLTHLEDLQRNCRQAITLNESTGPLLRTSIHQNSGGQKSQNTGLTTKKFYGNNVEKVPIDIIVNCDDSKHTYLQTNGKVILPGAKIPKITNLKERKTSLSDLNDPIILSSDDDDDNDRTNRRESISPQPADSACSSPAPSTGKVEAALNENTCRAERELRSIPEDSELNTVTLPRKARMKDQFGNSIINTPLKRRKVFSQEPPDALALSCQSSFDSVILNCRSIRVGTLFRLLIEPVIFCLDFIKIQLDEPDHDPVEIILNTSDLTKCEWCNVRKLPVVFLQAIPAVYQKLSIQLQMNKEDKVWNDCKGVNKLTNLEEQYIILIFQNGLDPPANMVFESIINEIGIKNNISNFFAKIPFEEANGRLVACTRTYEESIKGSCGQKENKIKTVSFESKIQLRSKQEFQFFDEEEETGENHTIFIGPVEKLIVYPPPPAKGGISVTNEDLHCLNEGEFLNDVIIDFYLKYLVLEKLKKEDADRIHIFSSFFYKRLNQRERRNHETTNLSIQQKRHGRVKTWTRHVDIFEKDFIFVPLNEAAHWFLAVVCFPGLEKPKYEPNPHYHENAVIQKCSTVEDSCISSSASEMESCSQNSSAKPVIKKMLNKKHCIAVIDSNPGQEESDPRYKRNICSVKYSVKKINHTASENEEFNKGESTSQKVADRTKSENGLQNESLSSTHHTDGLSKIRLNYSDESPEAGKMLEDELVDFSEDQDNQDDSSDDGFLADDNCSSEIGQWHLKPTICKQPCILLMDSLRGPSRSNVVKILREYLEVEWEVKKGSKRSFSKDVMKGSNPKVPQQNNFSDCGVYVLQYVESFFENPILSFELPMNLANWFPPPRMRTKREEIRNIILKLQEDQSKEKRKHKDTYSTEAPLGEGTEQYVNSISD
# [15] = target: FAD-linked sulfhydryl oxidase ALR (Homo sapiens, UniProt P55789); experiment: ALR-catalysed DTT oxidation blockers – biochemical, H2O2 detection, luminescence, cherry-pick, dose response (AID 493248)
# [16] = target: T5, Sentrin-specific protease 8 (Homo sapiens, UniProt Q96LD8); type: functional;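 further: luminescence read-out of SENP8 inhibition, dose-response confirmation following an ultra-high-throughput screen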
# T5 sequence (Q96LD8 whole entry): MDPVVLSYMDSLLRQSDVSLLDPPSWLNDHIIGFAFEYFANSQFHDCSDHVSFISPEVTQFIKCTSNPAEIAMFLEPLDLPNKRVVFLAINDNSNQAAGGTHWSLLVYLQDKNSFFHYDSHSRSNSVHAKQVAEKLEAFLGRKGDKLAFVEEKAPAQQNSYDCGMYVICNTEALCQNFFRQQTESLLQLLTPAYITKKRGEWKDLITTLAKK
# CAAX prenyl protease 1 = CAAX prenyl protease 1 (Saccharomyces cerevisiae S288c, UniProt P47154); experiment: yeast CAAX protease Ste24 inhibition – biochemical, S. cerevisiae, plate reader, cherry-pick, dose response (AID 488815)
# Genome polyprotein = Genome polyprotein (dengue virus type 2, UniProt P29990); experiment: flavivirus cap methylation enzyme inhibition – biochemical, confirmation dose response, primary screen (AID 588689); type: functional
# CAAX prenyl protease 2 [17] = target: CAAX prenyl protease 2 (Homo sapiens, UniProt Q9Y256); experiment: inhibition of Ras-converting CAAX protease Rce1 – biochemical, yeast membranes, quenched-peptide fluorescence, cherry-pick, dose response (AID 588849)
# Sequence of CAAX prenyl protease 2 (Homo sapiens, UniProt Q9Y256) (Q9Y256 whole entry): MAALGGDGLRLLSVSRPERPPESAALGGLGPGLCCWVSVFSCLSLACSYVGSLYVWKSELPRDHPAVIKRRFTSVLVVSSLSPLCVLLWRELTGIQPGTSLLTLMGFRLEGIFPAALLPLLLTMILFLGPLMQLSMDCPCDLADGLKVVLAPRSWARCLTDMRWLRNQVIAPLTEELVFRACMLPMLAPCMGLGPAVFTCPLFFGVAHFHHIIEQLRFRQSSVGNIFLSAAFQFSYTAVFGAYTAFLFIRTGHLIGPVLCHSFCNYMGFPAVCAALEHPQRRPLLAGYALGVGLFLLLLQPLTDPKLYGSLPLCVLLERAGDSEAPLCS
# Sequence of Tumor necrosis factor (P01375 whole entry, the tested form may be a part): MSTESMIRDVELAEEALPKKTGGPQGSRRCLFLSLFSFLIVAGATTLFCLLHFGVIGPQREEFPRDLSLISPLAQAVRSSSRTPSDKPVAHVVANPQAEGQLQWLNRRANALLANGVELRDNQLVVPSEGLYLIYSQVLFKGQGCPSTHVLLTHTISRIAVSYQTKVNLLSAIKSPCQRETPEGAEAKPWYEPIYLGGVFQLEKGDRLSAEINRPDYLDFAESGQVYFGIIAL
# Sequence of Nucleotide-binding oligomerization domain-containing protein 1 (Q9Y239 whole entry, the tested form may be a part): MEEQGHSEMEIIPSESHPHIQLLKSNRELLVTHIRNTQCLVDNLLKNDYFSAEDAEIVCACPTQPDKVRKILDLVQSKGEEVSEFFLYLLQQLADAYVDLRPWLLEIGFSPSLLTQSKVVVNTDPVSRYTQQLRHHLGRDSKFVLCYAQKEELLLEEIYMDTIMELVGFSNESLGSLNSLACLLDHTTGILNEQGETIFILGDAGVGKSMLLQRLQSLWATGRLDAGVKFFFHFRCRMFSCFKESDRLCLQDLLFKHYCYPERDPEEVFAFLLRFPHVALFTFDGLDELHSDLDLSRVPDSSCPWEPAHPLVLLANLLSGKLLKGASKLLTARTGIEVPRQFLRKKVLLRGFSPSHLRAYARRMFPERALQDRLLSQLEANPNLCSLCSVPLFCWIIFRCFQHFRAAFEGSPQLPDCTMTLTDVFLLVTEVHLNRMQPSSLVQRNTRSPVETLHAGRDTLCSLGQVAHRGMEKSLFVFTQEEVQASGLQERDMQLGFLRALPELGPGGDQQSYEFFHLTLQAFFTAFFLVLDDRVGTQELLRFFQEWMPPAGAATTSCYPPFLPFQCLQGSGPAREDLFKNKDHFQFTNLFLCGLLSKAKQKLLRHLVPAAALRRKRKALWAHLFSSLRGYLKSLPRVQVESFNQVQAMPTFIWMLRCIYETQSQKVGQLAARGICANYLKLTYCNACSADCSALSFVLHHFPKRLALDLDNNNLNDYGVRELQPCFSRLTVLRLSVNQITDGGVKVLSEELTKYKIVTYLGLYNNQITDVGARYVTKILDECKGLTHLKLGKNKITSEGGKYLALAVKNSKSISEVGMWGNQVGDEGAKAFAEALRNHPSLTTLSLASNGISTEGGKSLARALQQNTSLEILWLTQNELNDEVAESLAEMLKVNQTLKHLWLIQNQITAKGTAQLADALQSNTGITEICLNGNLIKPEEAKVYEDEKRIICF
# Sequence of Induced myeloid leukemia cell differentiation protein Mcl-1 (Q07820 whole entry): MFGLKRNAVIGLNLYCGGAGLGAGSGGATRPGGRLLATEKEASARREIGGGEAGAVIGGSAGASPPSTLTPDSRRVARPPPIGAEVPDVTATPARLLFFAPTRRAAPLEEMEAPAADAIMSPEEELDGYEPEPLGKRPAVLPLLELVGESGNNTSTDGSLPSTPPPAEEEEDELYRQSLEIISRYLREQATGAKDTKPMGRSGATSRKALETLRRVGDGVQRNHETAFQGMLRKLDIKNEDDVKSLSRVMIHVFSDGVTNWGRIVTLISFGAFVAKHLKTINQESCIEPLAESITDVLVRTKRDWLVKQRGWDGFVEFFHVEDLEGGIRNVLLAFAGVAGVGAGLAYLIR
# Sequence of CAAX prenyl protease 1 (P47154 whole entry): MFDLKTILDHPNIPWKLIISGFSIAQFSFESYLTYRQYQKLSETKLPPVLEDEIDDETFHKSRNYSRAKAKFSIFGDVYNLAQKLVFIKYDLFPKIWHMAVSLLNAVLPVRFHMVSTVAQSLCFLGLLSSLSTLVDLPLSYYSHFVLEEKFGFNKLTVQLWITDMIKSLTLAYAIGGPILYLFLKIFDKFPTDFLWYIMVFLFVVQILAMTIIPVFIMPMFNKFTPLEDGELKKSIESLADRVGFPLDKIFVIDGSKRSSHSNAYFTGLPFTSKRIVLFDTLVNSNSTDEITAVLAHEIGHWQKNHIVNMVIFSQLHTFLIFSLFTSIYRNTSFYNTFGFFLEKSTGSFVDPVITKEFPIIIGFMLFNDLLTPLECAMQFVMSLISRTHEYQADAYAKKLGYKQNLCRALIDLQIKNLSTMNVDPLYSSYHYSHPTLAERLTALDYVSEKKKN
# Sequence of CAAX prenyl protease 2 (Saccharomyces cerevisiae S288c, UniProt Q03530) (Q03530 whole entry): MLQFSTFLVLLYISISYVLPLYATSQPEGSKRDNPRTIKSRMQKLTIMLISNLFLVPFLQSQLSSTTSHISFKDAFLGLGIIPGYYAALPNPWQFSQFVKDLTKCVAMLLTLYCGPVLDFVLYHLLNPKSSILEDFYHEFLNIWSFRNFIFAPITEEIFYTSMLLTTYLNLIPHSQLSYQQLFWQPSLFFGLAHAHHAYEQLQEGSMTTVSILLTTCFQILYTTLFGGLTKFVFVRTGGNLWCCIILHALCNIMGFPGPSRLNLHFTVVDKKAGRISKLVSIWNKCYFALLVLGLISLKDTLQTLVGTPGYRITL
# Sequence of Cytochrome P450 2D6 (P10635 whole entry): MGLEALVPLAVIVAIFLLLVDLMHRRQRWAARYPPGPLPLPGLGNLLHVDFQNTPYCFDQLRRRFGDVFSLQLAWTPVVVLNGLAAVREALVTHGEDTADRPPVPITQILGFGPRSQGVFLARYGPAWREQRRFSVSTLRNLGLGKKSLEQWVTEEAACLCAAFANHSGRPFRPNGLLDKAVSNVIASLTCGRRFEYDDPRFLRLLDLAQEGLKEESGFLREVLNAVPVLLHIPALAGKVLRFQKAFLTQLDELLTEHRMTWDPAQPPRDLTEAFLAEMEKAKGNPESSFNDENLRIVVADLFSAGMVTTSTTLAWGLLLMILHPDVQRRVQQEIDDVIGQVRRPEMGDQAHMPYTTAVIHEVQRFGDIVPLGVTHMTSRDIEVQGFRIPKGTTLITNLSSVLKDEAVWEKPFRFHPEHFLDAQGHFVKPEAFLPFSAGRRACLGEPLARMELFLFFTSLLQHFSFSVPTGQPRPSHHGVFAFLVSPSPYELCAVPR
# Sequence of Cytochrome P450 2C9 (P11712 whole entry): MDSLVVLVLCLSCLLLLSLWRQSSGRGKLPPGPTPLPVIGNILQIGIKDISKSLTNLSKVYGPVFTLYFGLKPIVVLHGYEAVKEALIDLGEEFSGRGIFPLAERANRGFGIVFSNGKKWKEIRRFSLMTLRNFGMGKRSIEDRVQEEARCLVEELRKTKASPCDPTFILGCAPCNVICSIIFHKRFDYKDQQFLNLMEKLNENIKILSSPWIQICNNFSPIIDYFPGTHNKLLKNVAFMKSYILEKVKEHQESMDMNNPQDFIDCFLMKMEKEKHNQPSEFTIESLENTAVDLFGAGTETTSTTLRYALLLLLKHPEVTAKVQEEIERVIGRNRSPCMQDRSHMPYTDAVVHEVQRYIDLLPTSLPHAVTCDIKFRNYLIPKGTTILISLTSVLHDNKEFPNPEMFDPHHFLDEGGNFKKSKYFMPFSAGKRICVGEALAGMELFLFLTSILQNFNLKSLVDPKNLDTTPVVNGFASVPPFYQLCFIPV
# Sequence of Nucleotide-binding oligomerization domain-containing protein 2 (Q9HC29 whole entry, the tested form may be a part): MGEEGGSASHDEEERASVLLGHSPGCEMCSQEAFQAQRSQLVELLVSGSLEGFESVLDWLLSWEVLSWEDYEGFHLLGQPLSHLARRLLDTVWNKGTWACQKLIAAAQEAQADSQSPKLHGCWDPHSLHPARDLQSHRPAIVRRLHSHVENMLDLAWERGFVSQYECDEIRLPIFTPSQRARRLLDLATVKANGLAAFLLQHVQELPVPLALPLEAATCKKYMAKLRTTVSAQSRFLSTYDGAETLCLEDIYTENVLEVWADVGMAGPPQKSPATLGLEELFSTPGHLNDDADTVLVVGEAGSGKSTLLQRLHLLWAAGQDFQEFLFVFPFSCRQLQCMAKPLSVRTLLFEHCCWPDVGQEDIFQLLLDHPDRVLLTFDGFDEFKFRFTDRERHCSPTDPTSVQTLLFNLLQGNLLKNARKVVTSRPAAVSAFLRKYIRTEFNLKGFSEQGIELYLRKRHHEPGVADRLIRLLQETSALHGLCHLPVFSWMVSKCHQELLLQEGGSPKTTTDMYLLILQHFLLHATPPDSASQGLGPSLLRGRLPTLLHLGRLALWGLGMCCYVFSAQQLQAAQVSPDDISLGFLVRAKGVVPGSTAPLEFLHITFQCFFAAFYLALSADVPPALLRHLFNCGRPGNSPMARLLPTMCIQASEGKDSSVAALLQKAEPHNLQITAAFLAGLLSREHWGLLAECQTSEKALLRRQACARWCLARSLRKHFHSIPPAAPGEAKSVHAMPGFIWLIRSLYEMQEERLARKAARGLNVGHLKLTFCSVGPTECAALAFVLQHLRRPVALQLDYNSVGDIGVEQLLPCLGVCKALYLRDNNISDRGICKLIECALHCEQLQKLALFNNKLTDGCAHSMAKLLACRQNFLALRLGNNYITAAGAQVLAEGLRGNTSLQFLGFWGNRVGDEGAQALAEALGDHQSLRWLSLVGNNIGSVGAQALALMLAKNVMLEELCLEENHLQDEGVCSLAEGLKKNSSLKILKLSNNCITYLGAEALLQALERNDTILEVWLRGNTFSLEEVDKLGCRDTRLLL
# Sequence of Trypsin (P00761 whole entry): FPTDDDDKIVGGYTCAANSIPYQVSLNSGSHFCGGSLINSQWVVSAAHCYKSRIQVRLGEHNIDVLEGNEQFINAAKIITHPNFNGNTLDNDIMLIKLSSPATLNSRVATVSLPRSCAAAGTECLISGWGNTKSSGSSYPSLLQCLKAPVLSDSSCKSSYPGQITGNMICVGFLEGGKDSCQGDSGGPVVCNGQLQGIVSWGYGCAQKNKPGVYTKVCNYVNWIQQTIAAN
compound,measurement,setting,value
Nn1c(SCC(=O)N2CCOCC2)nnc1-c1ccccc1Cl,AC50,Cytochrome P450 2C9,79.4 nM (inconclusive)
same,AC50,Cytochrome P450 2D6,inconclusive
COC(=O)c1ccc2nc(Nc3nc4c(F)cc(F)cc4s3)sc2c1,EC50,HEK293 [1],3.03 µM (active)
same,IC50,HEK293 [2],666 nM (active)
same,IC50,HEK293 [3],> 20 µM (inactive)
same,EC50,[4],300 nM (active)
same,IC50,HEK293 [5],1.92 µM (active)
same,IC50,HEK293 [6],> 20 µM (inactive)
same,IC50,[7],2.8 µM (active)
same,IC50,Tumor necrosis factor,230 nM (active)
same,IC50,[8],429 nM (active)
same,IC50,[9],> 80 µM (inactive)
same,IC50,HEK293 [10],9.76 µM (active)
O=C(O)c1ccc(N/N=C/c2cn(Cc3ccccc3F)c3ccccc23)cc1,IC50,[11],< 400 nM (not active)
same,AC50,Trypsin,13.8 µM (active)
same,AC50,CAAX prenyl protease 2 [12],4.78 µM (active)
same,IC50,Caspase-3,22.7 µM (active)
same,IC50,[13],3.24 µM (active)
same,IC50,[14],2.6 µM (active)
same,AC50,[15],2.1 µM (active)
same,IC50,[16],2.92 µM (active)
same,AC50,CAAX prenyl protease 1,5.53 µM (active)
same,IC50,Genome polyprotein,64.1 µM (active)
same,AC50,CAAX prenyl protease 2 [17],5.18 µM (active)

# Reference: ChEMBL document CHEMBL1201862, “PubChem BioAssay data set” (2004)
